Consider 1 molecule from US20080299177A1, “Supramolecular Complexes for Use in Acoustically Mediated Intracellular Drug Delivery in vivo” (Biovaluation & Analysis, Inc., priority 2007, published 2008).

For data set [1], the system named is Mammalian Cells. Description: Ultrasound-mediated intracellular calcein delivery and cell viability (flow cytometry). To be noted: calcein released from supramolecular complexes, with contrast agent. Format: cell-based. The source says: (§1) Ultrasound. Ultrasonic energy is produced using an immersible, focused, piezoceramic transducer. In this experimental system, two different matching resistance networks are necessary, allowing production of sound at 1.0 MHz and 3.0 MHz, similar to a method known in the art (Guzmán et al., 2001a, 2001b, 2002, and 2003; and Schlicher et al., 2006). A sinusoidal waveform is produced by, for example, programmable waveform generators (Stanford Research Instruments, Sunnyvale, Calif.) used in conjunction to control pulse length, frequency, and peak-to-peak voltage. The sinusoidal waveform is amplified by an RF broadband power amplifier (Electronic Navigation Industries, Rochester, N.Y.) before passing through a matching network and controlling the response of the transducer. The transducer is housed in a polycarbonate tank (FIG. 12 [601]) 34.5×32×40 cm; containing approximately 34 liters of deionized, distilled, and partially degassed water at room temperature (i.e., 22° C. to 23° C.). A thick acoustic absorber is mounted opposite the transducer to minimize standing-wave formation (not illustrated). A three-axis micropositioning system (10 μm resolution; Velmex, Bloomfield, N.Y.) is mounted on top of the tank to position samples and a hydrophone at desired locations in the tank. A PVDF membrane hydrophone (NTR Systems, Seattle, Wash.) is used to measure spatial-peak-temporal-peak negative pressure and to map and calibrate the acoustic field produced by the transducer versus the peak-to-peak voltage signal provided by a function generator.
Preparation of Nanocarriers (Supramolecular Complexes) and Samples. Before Ultrasound exposure, supramolecular complexes are prepared encapsulating calcein (i.e., 15 μM initial solution) by using a procedure of Examples 1 and 2. Samples are prepared at a cell concentration of 10^6 cells/ml, supramolecular complexes containing calcein, and the ultrasound contrast agent Optison® at concentrations of 0.30% v/v (˜1.6×10^6 bubble/ml), 1.8% v/v (˜1.1×10^7 bubble/ml), and 15.0% v/v (˜9.3×10^7 bubble/ml). Optison® is an ultrasound contrast agent, a suspension of perfluorcarbon gas bubbles stabilized with denatured human albumin that is used to serve primarily as nuclei to promote acoustic cavitation activity in sonicated samples. The product name “Optison®” may hereafter be referred to as “contrast agent” or “ultrasound contrast agent.”
Before every experiment, the desired placement of the supramolecular complex and cell samples in the acoustic field is found using the PVDF membrane hydrophone (FIG. 12 [604]). This location is approximately 1 cm and 0.5 cm out of the ultrasound's focus toward the transducer (601) (for 1.1 MHz and 3.1 MHz, respectively). The acoustic pressure is calibrated versus the peak-to-peak voltage of the signal created by the function generator, using the PVDF membrane hydrophone (604) at the desired location. These out-of-focus locations have a broader acoustic beam than at the focus, approximately 10.4-mm and 2.4-mm wide at half-amplitude (i.e., −6 dB) for 1.1 MHz and 3.1 MHz, respectively. […]
Samples are placed within chambers (605) constructed from a cylindrical bulb of polyethylene with an approximate dimension of 1.4 cm in height and 0.6 cm in diameter. […] A metal rod (606) is immediately inserted into the open end of the sample chamber and then attached to the three-axis positioning system (603), placing the sample in the desired location as determined by the hydrophone (604). […]

The test system of data set [2] is Henrietta Lacks (HeLa) cells. Description: Ultrasound-mediated intracellular calcein delivery and cell viability in HeLa cells (flow cytometry). Format: cell-based. As to conditions: HeLa cells compared with AoSMC cells; 1.1 MHz and 3.1 MHz; FIGS. 14A-14D.
Text: as §1, with “A PVDF membrane hydrophone (NTR Systems, Seattle, Wash.) is used to measure spatial-peak-temporal-peak negative pressure and to map and calibrate the acoustic field produced by the transducer versus the peak-to-peak voltage signal provided by a function generator.” left out

Consider `O=C(O)CN(CC(=O)O)Cc1cc2c(cc1O)Oc1cc(O)c(CN(CC(=O)O)CC(=O)O)cc1C21OC(=O)c2ccccc21` [calcein], for which, in data set [1] (mild ultrasound conditions), the calcein uptake entry is given as “low levels” and the cell death entry is “almost no cell death”. In data set [1] (moderate ultrasound conditions), the “calcein uptake (fraction of cells)” value was “one-third” and the cell death result is on record as “some cell death”. For the same molecule, the cell death entry in data set [1] (strong ultrasound conditions) is recorded as “kill almost all insonated cells”. Further, in data set [2], the cell death entry was “lower levels of death” and the uptake result is “greater uptake”.
